Results: PubChem BioAssay AID1919014 (Molecular Pharmacology Branch, DTP, NCI, 2023)

System: NCI-H1341 complex spheroids, percent test/control
Experiment: Anticancer human tumor NCI-H1341 cell line growth inhibition [AhR];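 further: spheroids exposed to agents for seven days before readout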
Conditions: for IC50: curve of first compound; for viability, T/C: stronger effect = lower value
Method in brief: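 Spheroids combined tumor cells with HUVEC endothelial cells and human MSCs as stroma. AhR antagonists were paired with standard or investigational drugs, each dosed in half-log steps down from near clinical Cmax, or from 10 microM where Cmax was unknown.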

[1] = second compound 0.1 µM, first compound 0.0316 µM
[2] = second compound 0.1 µM, first compound 0.1 µM
[3] = second compound 0.1 µM, first compound 0.316 µM
[4] = second compound 0.1 µM, first compound 1 µM
[5] = second compound 0.1 µM, first compound 3.16 µM
[6] = second compound 0.1 µM, first compound 10 µM
[7] = second compound 0.316 µM, first compound 0.0316 µM
[8] = second compound 0.316 µM, first compound 0.1 µM
[9] = second compound 0.316 µM, first compound 0.316 µM
[10] = second compound 0.316 µM, first compound 1 µM
[11] = second compound 0.316 µM, first compound 3.16 µM
[12] = second compound 0.316 µM, first compound 10 µM
[13] = second compound 1 µM, first compound 0.0316 µM
[14] = second compound 1 µM, first compound 0.1 µM
[15] = second compound 1 µM, first compound 0.316 µM
[16] = second compound 1 µM, first compound 1 µM
[17] = second compound 1 µM, first compound 3.16 µM
[18] = second compound 1 µM, first compound 10 µM
[19] = second compound 3.16 µM, first compound 0.0316 µM
[20] = second compound 3.16 µM, first compound 0.1 µM
[21] = second compound 3.16 µM, first compound 0.316 µM
[22] = second compound 3.16 µM, first compound 1 µM
[23] = second compound 3.16 µM, first compound 3.16 µM
[24] = second compound 3.16 µM, first compound 10 µM
[25] = second compound 10 µM, first compound 0.0316 µM
[26] = second compound 10 µM, first compound 0.1 µM
[27] = second compound 10 µM, first compound 0.316 µM
[28] = second compound 10 µM, first compound 1 µM
[29] = second compound 10 µM, first compound 3.16 µM
[30] = second compound 10 µM, first compound 10 µM

O=C(C=Cn1cnc(-c2cc(C(F)(F)F)cc(C(F)(F)F)c2)n1)NNc1cnccn1 + Cc1cncc(-c2nc(NCCc3c[nH]c4ccccc34)c3ncn(C(C)C)c3n2)c1
IC50 (second compound 0.1 µM): 98.1 nM
IC50 (second compound 0.316 µM): 56.8 nM
IC50 (second compound 1 µM): 81.1 nM
IC50 (second compound 3.16 µM): 44.4 nM
IC50 (second compound 10 µM): < 9.49 nM
viability, T/C (second compound 0.1 µM, first compound 0.00949 µM): 80.6%
viability, T/C (second compound 0.1 µM, first compound 0.03 µM): 77%
viability, T/C (second compound 0.1 µM, first compound 0.0949 µM): 51.1%
viability, T/C (second compound 0.1 µM, first compound 0.3 µM): 14.5%
viability, T/C (second compound 0.1 µM, first compound 0.949 µM): 7.39%
viability, T/C (second compound 0.1 µM, first compound 3 µM): 6.28%
viability, T/C (second compound 0.316 µM, first compound 0.00949 µM): 66.5%
viability, T/C (second compound 0.316 µM, first compound 0.03 µM): 65.7%
viability, T/C (second compound 0.316 µM, first compound 0.0949 µM): 38%
viability, T/C (second compound 0.316 µM, first compound 0.3 µM): 13.4%
viability, T/C (second compound 0.316 µM, first compound 0.949 µM): 7.92%
viability, T/C (second compound 0.316 µM, first compound 3 µM): 4.63%
viability, T/C (second compound 1 µM, first compound 0.00949 µM): 76.8%
viability, T/C (second compound 1 µM, first compound 0.03 µM): 78.5%
viability, T/C (second compound 1 µM, first compound 0.0949 µM): 45.1%
viability, T/C (second compound 1 µM, first compound 0.3 µM): 12.7%
viability, T/C (second compound 1 µM, first compound 0.949 µM): 7.39%
viability, T/C (second compound 1 µM, first compound 3 µM): 4.92%
viability, T/C (second compound 3.16 µM, first compound 0.00949 µM): 70.2%
viability, T/C (second compound 3.16 µM, first compound 0.03 µM): 60.4%
viability, T/C (second compound 3.16 µM, first compound 0.0949 µM): 30.8%
viability, T/C (second compound 3.16 µM, first compound 0.3 µM): 13.6%
viability, T/C (second compound 3.16 µM, first compound 0.949 µM): 7.86%
viability, T/C (second compound 3.16 µM, first compound 3 µM): 4.46%
viability, T/C (second compound 10 µM, first compound 0.00949 µM): 35.3%
viability, T/C (second compound 10 µM, first compound 0.03 µM): 34.8%
viability, T/C (second compound 10 µM, first compound 0.0949 µM): 17.4%
viability, T/C (second compound 10 µM, first compound 0.3 µM): 9.23%
viability, T/C (second compound 10 µM, first compound 0.949 µM): 5.77%
viability, T/C (second compound 10 µM, first compound 3 µM): 3.55%

COc1cccc2c1C(=O)c1c(O)c3c(c(O)c1C2=O)CC(O)(C(=O)CO)CC3OC1CC(N)C(O)C(C)O1 (stereo not given) + Cc1ccccc1N=Nc1ccc(NC(=O)c2ccnn2C)c(C)c1
IC50 (second compound 0.1 µM): 92.8 nM
IC50 (second compound 0.316 µM): < 31.6 nM
IC50 (second compound 1 µM): 166 nM
IC50 (second compound 3.16 µM): < 31.6 nM
IC50 (second compound 10 µM): < 31.6 nM
viability, T/C [1]: 59.7%
viability, T/C [2]: 44.6%
viability, T/C [3]: 37.9%
viability, T/C [4]: 18.2%
viability, T/C [5]: 1.96%
viability, T/C [6]: 4.55%
viability, T/C [7]: 50%
viability, T/C [8]: 48.6%
viability, T/C [9]: 38.2%
viability, T/C [10]: 24.2%
viability, T/C [11]: 2.31%
viability, T/C [12]: 4.21%
viability, T/C [13]: 58.8%
viability, T/C [14]: 51.5%
viability, T/C [15]: 44.6%
viability, T/C [16]: 16.5%
viability, T/C [17]: 2.36%
viability, T/C [18]: 4.45%
viability, T/C [19]: 50.1%
viability, T/C [20]: 48.2%
viability, T/C [21]: 41.1%
viability, T/C [22]: 16.2%
viability, T/C [23]: 3.35%
viability, T/C [24]: 5.99%
viability, T/C [25]: 40.9%
viability, T/C [26]: 41.2%
viability, T/C [27]: 35.9%
viability, T/C [28]: 14.4%
viability, T/C [29]: 5.03%
viability, T/C [30]: 4.31%

Nc1ccccc1NC(=O)c1ccc(CNC(=O)OCc2cccnc2)cc1 + CC(CO)NC(=O)c1cc(-c2ccc(Cl)cc2)nn(-c2cnn(C)c2)c1=O
IC50 (second compound 0.1 µM): 144 nM
IC50 (second compound 0.316 µM): 204 nM
IC50 (second compound 1 µM): 187 nM
IC50 (second compound 3.16 µM): 133 nM
IC50 (second compound 10 µM): 52.3 nM
viability, T/C [1]: 66.7%
viability, T/C [2]: 58.1%
viability, T/C [3]: 34.4%
viability, T/C [4]: 14.8%
viability, T/C [5]: 6.51%
viability, T/C [6]: 0.25%
viability, T/C [7]: 74.3%
viability, T/C [8]: 60.1%
viability, T/C [9]: 45%
viability, T/C [10]: 15.6%
viability, T/C [11]: 6.91%
viability, T/C [12]: 0.6%
viability, T/C [13]: 60.9%
viability, T/C [14]: 64%
viability, T/C [15]: 40%
viability, T/C [16]: 16.7%
viability, T/C [17]: 8.93%
viability, T/C [18]: 0.42%
viability, T/C [19]: 63.4%
viability, T/C [20]: 57.3%
viability, T/C [21]: 31.3%
viability, T/C [22]: 12.1%
viability, T/C [23]: 6.39%
viability, T/C [24]: 0.79%
viability, T/C [25]: 56.6%
viability, T/C [26]: 41.3%
viability, T/C [27]: 26.4%
viability, T/C [28]: 12.6%
viability, T/C [29]: 4.04%
viability, T/C [30]: 0.25%
